Assay [1] concerns the target T1, Histone-lysine N-methyltransferase, H3 lysine-79 specific (Homo sapiens, UniProt Q8TEK3). Put plainly: Inhibition of recombinant human His6-SUMO tagged DOT1L (1 to 416 residues) expressed in Escherichia coli BL21(DE3) at 100 uM using oligonucleosome as substrate pretreated for 15 mins followed by substrate addition measured after 60 mins in presence of [3H]SAM by liquid scintillation counting method relative to control.
Target sequence in this assay (Q8TEK3 whole entry, looked up, the tested form may be a part): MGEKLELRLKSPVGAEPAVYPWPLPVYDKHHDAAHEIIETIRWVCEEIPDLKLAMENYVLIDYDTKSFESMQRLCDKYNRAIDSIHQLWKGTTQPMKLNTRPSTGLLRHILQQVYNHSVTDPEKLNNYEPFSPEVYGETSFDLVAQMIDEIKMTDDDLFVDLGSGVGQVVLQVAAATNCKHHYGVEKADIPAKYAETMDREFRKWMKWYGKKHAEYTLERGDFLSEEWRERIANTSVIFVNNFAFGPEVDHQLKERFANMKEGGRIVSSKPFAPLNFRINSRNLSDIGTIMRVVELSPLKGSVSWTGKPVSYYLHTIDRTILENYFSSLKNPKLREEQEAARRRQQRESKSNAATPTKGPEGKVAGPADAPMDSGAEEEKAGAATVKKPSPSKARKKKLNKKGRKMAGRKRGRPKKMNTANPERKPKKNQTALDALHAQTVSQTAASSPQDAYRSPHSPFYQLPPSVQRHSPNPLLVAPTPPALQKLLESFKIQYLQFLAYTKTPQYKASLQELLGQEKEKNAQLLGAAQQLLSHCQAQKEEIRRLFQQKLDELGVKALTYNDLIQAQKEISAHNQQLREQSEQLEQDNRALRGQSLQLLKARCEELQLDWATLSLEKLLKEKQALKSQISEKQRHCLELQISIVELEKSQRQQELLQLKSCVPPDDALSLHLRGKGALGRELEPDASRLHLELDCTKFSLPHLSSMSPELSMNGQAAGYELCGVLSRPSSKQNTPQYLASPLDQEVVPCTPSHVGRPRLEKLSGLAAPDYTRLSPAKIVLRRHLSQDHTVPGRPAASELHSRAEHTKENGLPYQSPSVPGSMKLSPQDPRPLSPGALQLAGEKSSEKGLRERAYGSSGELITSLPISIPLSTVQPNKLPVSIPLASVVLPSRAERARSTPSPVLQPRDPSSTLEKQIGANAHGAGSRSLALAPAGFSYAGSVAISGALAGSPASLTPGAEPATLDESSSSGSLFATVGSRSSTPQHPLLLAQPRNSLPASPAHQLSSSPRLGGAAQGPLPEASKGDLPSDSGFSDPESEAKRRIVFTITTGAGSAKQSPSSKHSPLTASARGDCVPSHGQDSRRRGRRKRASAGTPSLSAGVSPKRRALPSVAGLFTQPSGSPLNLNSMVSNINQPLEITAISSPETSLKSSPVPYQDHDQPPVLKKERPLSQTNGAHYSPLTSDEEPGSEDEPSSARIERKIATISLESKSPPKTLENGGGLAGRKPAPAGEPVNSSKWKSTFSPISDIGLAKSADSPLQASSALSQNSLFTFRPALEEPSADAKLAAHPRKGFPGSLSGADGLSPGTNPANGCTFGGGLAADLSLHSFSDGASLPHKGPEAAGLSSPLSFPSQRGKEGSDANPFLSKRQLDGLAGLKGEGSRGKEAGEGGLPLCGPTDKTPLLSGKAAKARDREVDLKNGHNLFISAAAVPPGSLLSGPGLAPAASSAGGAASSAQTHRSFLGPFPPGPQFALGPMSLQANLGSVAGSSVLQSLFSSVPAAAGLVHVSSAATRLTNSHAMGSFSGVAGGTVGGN

For assay [2], the target named is T1, Histone-lysine N-methyltransferase, H3 lysine-79 specific. Briefly: Inhibition of recombinant human His6-SUMO tagged DOT1L (1 to 416 residues) expressed in Escherichia coli BL21(DE3) at 50 uM using oligonucleosome as substrate pretreated for 15 mins followed by substrate addition measured after 60 mins in presence of [3H]SAM by liquid scintillation counting method relative to control.
Target sequence in this assay (Q8TEK3 whole entry, looked up, the tested form may be a part): as above

Assay [3] shares this target. Put plainly: Inhibition of recombinant human His6-SUMO tagged DOT1L (1 to 416 residues) expressed in Escherichia coli BL21(DE3) at 25 uM using oligonucleosome as substrate pretreated for 15 mins followed by substrate addition measured after 60 mins in presence of [3H]SAM by liquid scintillation counting method relative to control.
Target sequence in this assay (Q8TEK3 whole entry, looked up, the tested form may be a part): as above
Assay [4] shares this target. Put plainly: Binding affinity to recombinant human His6-SUMO tagged DOT1L (1 to 416 residues) expressed in Escherichia coli BL21(DE3) by surface plasmon resonance method. A general note: In SPR one partner is held on a chip, and binding of the other changes the refractive index at the surface.
Target sequence in this assay (Q8TEK3 whole entry, the tested form may be a part): as the sequence (Q8TEK3 whole entry, looked up, the tested form may be a part) above
Assay [5] has the same target. Put plainly: Inhibition of recombinant human His6-SUMO tagged DOT1L (1 to 416 residues) expressed in Escherichia coli BL21(DE3) using oligonucleosome as substrate pretreated for 15 mins followed by substrate addition measured after 60 mins in presence of [3H]SAM by liquid scintillation counting method.
Target sequence in this assay (Q8TEK3 whole entry, the tested form may be a part): as the sequence (Q8TEK3 whole entry, looked up, the tested form may be a part) above
For assay [6], the system named is MV4-11. Put plainly: Antiproliferative activity against human MV411 cells after 72 hrs by Alamar blue assay. The settings on record: MV4-11, 72 h. It counts as functional, cell-based. (In general: The colour change of resazurin is a common sign of viable cells or microbes.)
The target in assay [7] is T1, Histone-lysine N-methyltransferase, H3 lysine-79 specific. Put plainly: Inhibition of recombinant human His6-SUMO tagged DOT1L (1 to 416 residues) expressed in Escherichia coli BL21(DE3) using oligonucleosome as substrate measured after 30 mins in presence of SAM by AlphaLISA assay. (In general: Alpha assays give light when donor and acceptor beads are brought close together.)
Target sequence in this assay (Q8TEK3 whole entry, the tested form may be a part): as the sequence (Q8TEK3 whole entry, looked up, the tested form may be a part) above

In assay [8] the test system is MV4-11. Briefly: Cell cycle arrest in human MV411 cells assessed as accumulation at G1 phase at 50 uM after 24 hrs by propidium iodide staining based flow cytometric analysis (reference value: 40.62 to 65.56%). It counts as functional.
In assay [9] the test system is MV4-11. Put plainly: Cell cycle arrest in human MV411 cells assessed as accumulation at G2 phase at 50 uM after 24 hrs by propidium iodide staining based flow cytometric analysis (reference value: 4.19 to 11.88%). The class given is functional.
Assay [10] deals with MV4-11. Briefly: Cell cycle arrest in human MV411 cells assessed as accumulation at S phase at 50 uM after 24 hrs by propidium iodide staining based flow cytometric analysis (reference value: 30.25 to 47.5%). It counts as functional.
Assay [11] has as its system MV4-11. Put plainly: Cell cycle arrest in human MV411 cells assessed as accumulation at G1 phase at 25 uM after 24 hrs by propidium iodide staining based flow cytometric analysis (reference value: 40.62 to 65.56%). It counts as functional.
Assay [12] concerns MV4-11. Briefly: Cell cycle arrest in human MV411 cells assessed as accumulation at G2 phase at 25 uM after 24 hrs by propidium iodide staining based flow cytometric analysis (reference value: 4.19 to 11.88%). The class given is functional.
The test system of assay [13] is MV4-11. Put plainly: Cell cycle arrest in human MV411 cells assessed as accumulation at S phase at 25 uM after 24 hrs by propidium iodide staining based flow cytometric analysis (reference value: 30.25 to 47.5%). The class given is functional.
Assay [14] concerns MV4-11. Briefly: Cell cycle arrest in human MV411 cells assessed as accumulation at G1 phase at 12.5 uM after 24 hrs by propidium iodide staining based flow cytometric analysis (reference value: 40.62 to 65.56%). It counts as functional.
Assay [15] concerns MV4-11. Put plainly: Cell cycle arrest in human MV411 cells assessed as accumulation at G2 phase at 12.5 uM after 24 hrs by propidium iodide staining based flow cytometric analysis (reference value: 4.19 to 11.88%). The class given is functional.
The subject of assay [16] is MV4-11. Put plainly: Cell cycle arrest in human MV411 cells assessed as accumulation at S phase at 12.5 uM after 24 hrs by propidium iodide staining based flow cytometric analysis (reference value: 30.25 to 47.5%). The class given is functional.
In assay [17] the test system is MV4-11. Put plainly: Induction of apoptosis in human MV411 cells assessed as viable cells at 50 uM after 48 hrs by Annexin-V-FITC/propidium iodide staining based flow cytometric method (reference value: 88.5 to 94.5%). The class given is functional. The following applies: MV4-11, 48 h, read-out: Activity.
Assay [18] relates to MV4-11. Put plainly: Induction of apoptosis in human MV411 cells assessed as early apoptotic cells at 50 uM after 48 hrs by Annexin-V-FITC/propidium iodide staining based flow cytometric method (reference value: 1.15 to […]). It counts as functional.
For assay [19], the system named is MV4-11. Briefly: Induction of apoptosis in human MV411 cells assessed as late apoptotic cells at 50 uM after 48 hrs by Annexin-V-FITC/propidium iodide staining based flow cytometric method (reference value: 4.38 to 4.63%). The class given is functional.
The subject of assay [20] is MV4-11. Put plainly: Induction of apoptosis in human MV411 cells assessed as necrotic cells at 50 uM after 48 hrs by Annexin-V-FITC/propidium iodide staining based flow cytometric method (Rvb <= 0.08%). The class given is functional.
Assay [21] concerns MV4-11. Put plainly: Induction of apoptosis in human MV411 cells assessed as viable cells at 25 uM after 48 hrs by Annexin-V-FITC/propidium iodide staining based flow cytometric method (reference value: 88.5 to 94.5%). The following applies: MV4-11, 48 h, read-out: Activity. It counts as functional.
Assay [22] relates to MV4-11. Put plainly: Induction of apoptosis in human MV411 cells assessed as early apoptotic cells at 25 uM after 48 hrs by Annexin-V-FITC/propidium iodide staining based flow cytometric method (reference value: 1.15 to […]). The class given is functional.
For assay [23], the system named is MV4-11. Briefly: Induction of apoptosis in human MV411 cells assessed as late apoptotic cells at 25 uM after 48 hrs by Annexin-V-FITC/propidium iodide staining based flow cytometric method (reference value: 4.38 to 4.63%). It counts as functional.
Assay [24] deals with MV4-11. Briefly: Induction of apoptosis in human MV411 cells assessed as necrotic cells at 25 uM after 48 hrs by Annexin-V-FITC/propidium iodide staining based flow cytometric method (Rvb <= 0.08%). The class given is functional.
The subject of assay [25] is MV4-11. Briefly: Induction of apoptosis in human MV411 cells assessed as viable cells at 12.5 uM after 48 hrs by Annexin-V-FITC/propidium iodide staining based flow cytometric method (reference value: 88.5 to 94.5%). The settings on record: MV4-11, 48 h, read-out: Activity. It counts as functional.
Assay [26] relates to MV4-11. Briefly: Induction of apoptosis in human MV411 cells assessed as early apoptotic cells at 12.5 uM after 48 hrs by Annexin-V-FITC/propidium iodide staining based flow cytometric method (reference value: 1.15 to […]). The class given is functional.
Assay [27] deals with MV4-11. Put plainly: Induction of apoptosis in human MV411 cells assessed as late apoptotic cells at 12.5 uM after 48 hrs by Annexin-V-FITC/propidium iodide staining based flow cytometric method (reference value: 4.38 to 4.63%). The class given is functional.
For assay [28], the system named is MV4-11. Put plainly: Induction of apoptosis in human MV411 cells assessed as necrotic cells at 12.5 uM after 48 hrs by Annexin-V-FITC/propidium iodide staining based flow cytometric method (Rvb <= 0.08%). The class given is functional.
The subject of assay [29] is MV4-11. Briefly: Cell cycle arrest in human MV411 cells assessed as accumulation at G1 phase after 24 hrs by propidium iodide staining based flow cytometric analysis. It counts as functional.

Broadly, the inhibition is the change of the read-out against control, counted positive when it falls. As a reminder, the Kd is the equilibrium constant for the complex coming apart. A word on the IC50: it is the midpoint of a concentration-inhibition curve.

Regarding `Fc1ccc(-c2nnc3sc(/C=C/c4ccco4)nn23)cc1`, the inhibition in [1] worked out at 40%; in assay [2], 44%.

For the compound `COc1ccccc1/C=C/c1nn2c(-c3ccc(N(C)C)cc3)nnc2s1`, the inhibition was found to be 53% in assay [1], 53% in assay [2] and 38.5% in assay [3].

With `C(=C\c1nn2c(N3CCOCC3)nnc2s1)/c1ccco1`, the inhibition in assay [1] came out at 65%; in assay [2] it was 55%; in assay [3], 45%.

On to `COc1cc(-c2nnc3sc(/C=C/c4ccco4)nn23)cc(OC)c1OC`, for which the inhibition in [1] was 60%; in assay [2], 53%; in assay [3], 48.1%.

With `c1ccc2c(Cc3nn4c(-c5ccoc5)nnc4s3)cccc2c1`, the inhibition in assay [1] stood at 77%; in assay [2] it was 59%; in [3], 43%.

In the case of `C(=C\c1nn2c(-c3cc4ccccc4o3)nnc2s1)/c1ccco1`, the inhibition in assay [1] stood at 88%; in [2], 71%; in [3] it was 9%.

For the compound `C(=C\c1nn2c(-c3ccccc3)nnc2s1)/c1ccco1`, the inhibition in assay [1] worked out at 81%; in assay [2] it was 79%; in assay [3], 79.4%. Also, the Kd in [4] lay within 4.78 to 4.87 µM. Moreover, the IC50 in assay [5] amounted to 7.01 µM; in the assay on MV4-11 [6] it was 64.7 µM.

Regarding `CN(C)c1ccc(-c2nnc3sc(/C=C/c4ccco4)nn23)cc1`, the inhibition came to 73% in [1], 60% in assay [2] and 56% in assay [3]. The half-inhibitory concentration (IC50) in assay [7] is 20.9 µM; in [5], 20.9 µM; in the assay with MV4-11 [6] it was 51.5 µM. Also, the dissociation constant (Kd) in [4] came to 9.3 µM. Further, the Activity amounted to 81.23% in the assay with MV4-11 [8]; 0% in the assay with MV4-11 [9]; 17.77% with MV4-11 [10]; 70.9% with MV4-11 [11]; 3.64% in the assay on MV4-11 [12]; 25.46% with MV4-11 [13]. Besides, the Activity is listed as 69.4% with MV4-11 [14]; 4.64% in the assay with MV4-11 [15]; 25.96% in the assay on MV4-11 [16]; 49.3% with MV4-11 [18]; 49.8% in the assay on MV4-11 [19]; 0.09% with MV4-11 [20]. For the same compound, the Activity came out at 35.4% in the assay on MV4-11 [22]; 42.4% in the assay with MV4-11 [23]; 0.04% in the assay with MV4-11 [24]; 2.01% in the assay on MV4-11 [26]; 6.29% in the assay on MV4-11 [27]; 0.05% in the assay with MV4-11 [28]. The Activity result in the assay on MV4-11 [29] is “Dose-dependent effect”. Moreover, the viability at 50 µM in the assay with MV4-11 [17] came to 0.83%. Also, the viability at 25 µM in the assay on MV4-11 [21] came to 22.2%. The viability at 12.5 µM with MV4-11 [25] turned out to be 91.6%.

Take `C(=C\c1nn2c(C3CCCCC3)nnc2s1)/c1ccco1`: the inhibition is 72% in assay [1], 68% in assay [2] and 40.2% in assay [3].

Take `Cc1occc1-c1nnc2sc(CCc3ccccc3)nn12`: the values for the inhibition in [1] and in assay [2] were 27% and 11%, respectively.

On to `Cc1occc1-c1nnc2sc(Cc3ccccc3)nn12`, for which the inhibition in assay [1] stood at 24%; in [2], 13%.

Regarding `Fc1cccc(-c2nnc3sc(/C=C/c4ccco4)nn23)c1`, the results for the inhibition in assay [1] and in [2] were 29% and 22%, respectively.

Regarding `Cc1cccc(-c2nnc3sc(/C=C/c4ccco4)nn23)c1`, the figures for the inhibition in assay [1], in assay [2] and in [3] were 74%, 69% and 66.6%, respectively. The dissociation constant (Kd) in assay [4] turned out to be 1.21 µM. The values for the half-maximal inhibitory concentration (IC50) (in [5]; in the assay with MV4-11 [6]) were 9.41 µM and 124 µM, respectively.

As to `COc1cccc(-c2nnc3sc(/C=C/c4ccco4)nn23)c1`, the figures for the inhibition in assay [1], in assay [2] and in assay [3] were 59%, 51% and 48.5%, respectively.

`Fc1cccc(-c2nnc3sc(CCc4ccccc4)nn23)c1`: the inhibition in assay [1] stood at 50%; in assay [2], 43%.

Consider `Cc1occc1-c1nnc2sc(CCCc3ccccc3)nn12`, for which the inhibition in assay [1] worked out at 41%; in assay [2], 17%.

On to `Nc1ncnc2c1ncn2[C@@H]1O[C@H](C[C@@H](N)CC[C@H](N)C(=O)O)[C@@H](O)[C@H]1O` [SINEFUNGIN], for which the IC50 in [7] is 33.7 µM.

`C(=C\c1nn2c(-c3ccncc3)nnc2s1)/c1ccco1`: the inhibition came out at 82% in assay [1], 67% in assay [2] and 54% in assay [3]. The dissociation constant (Kd) in [4] came to 7.4 µM. Also, the IC50 in assay [5] was determined as 13.7 µM; in the assay with MV4-11 [6] it was 66.5 µM.

(Values after ChEMBL document CHEMBL4219142, “Discovery of potent DOT1L inhibitors by AlphaLISA based High Throughput Screening assay” (Bioorg Med Chem, 2018).)
